The values below come from patent US7947279B2, “Peptide having hydrolase activity” (The Trustees of Columbia University in the City of New York, priority 2005, dated 2011).

For test [1], the system named is BST at the Schaffer collateral/CA1 connection of hippocampal slices. The experiment in a line: Basal synaptic transmission (BST) in hippocampal slices. Type of test: cell-based, mouse.
Test [2] concerns PPF in hippocampal slices. Nature of the test: Paired pulse facilitation (PPF) in hippocampal slices. Type of test: cell-based, mouse.
The subject of test [3] is SY5Y neuroblastoma cells transfected with a degron CL1-GFP expression vector. Nature of the test: Proteasome reporter assay (GFP^u). The conditions noted are these: substance alone. It counts as cell-based, human. Here is the method:
Proteasome reporter assays. In this cell line, human neuroblastoma SH-SY5Y cells were permanently transfected with reporter construct consisting of green fluorescent protein (GFP) conjugated at its C-terminus to a short degron sequence (CL-1) (Gilon et al., 1998). […] The SY5Y-GFP^u cells were grown in 1×DMEM (Invitrogen) supplemented with 15% fetal bovine serum (JRH), 1× penicillin/streptomycin (Gibco). After indicated treatments, GFP^u concentrations were assayed by densitometric analysis of immunoblots of total protein extracts (10 ug/lane) using monoclonal GFP antibodies (Santa Cruz Biotechnology) and visualized with HRP-conjugated secondary antibodies and ECL (Pierce). Loading equalization was normalized by probing blots with anti-ERK antibodies (Santa Cruz Biotechnology).
In general terms: In a reporter assay the amount or activity of a reporter protein is the signal.

Test [4] has as its system CA1-LTP in hippocampal slices. Nature of the test: CA1-LTP in hippocampal slices (theta-burst). Type of test: cell-based, mouse. The following applies: for LTP: lactacystin 10 μM; for baseline transmission in slices without tetanic stimulation: non-tetanized slices; for Aβ-induced impairment of CA1-LTP (words): fusion protein 20 nM 1 hr, then plus Aβ 200 nM 20 min; for LTP in slices not treated with Aβ (words): fusion protein 20 nM, 1 hr, WT slices, 3 theta-burst trains.

For test [5], the system named is PKA. Nature of the test: PKA kinase activity in hippocampal slices. It counts as cell-based, mouse. The conditions noted are these: lactacystin 10 μM 1 hr pretreatment, TAT-HA-Uch-L1 plus Aβ.
Test [6] deals with PKA. The experiment in a line: PKA kinase activity in hippocampal cultures. Type of test: cell-based, rat. The following applies: lactacystin 10 μM for 1 hr. Here is the method:
PKA Kinase Activity Measurement. Primary hippocampal neurons from E18 rats were dissociated and cultured as described (Vitolo et al, Proc Natl Acad Sci USA 99:13217-13221 (2002)). […]
Hippocampal slices were lysed with RIPA lysis buffer and homogenized by Dounce homogenizer on ice. 5 DIV primary cultures were treated for 24 hrs and cells were lysed with RIPA lysis buffer.
Levels of intracellular PKA kinase activity were measured by PKA Kinase Activity Assay Kit (Stressxpress) according to manufacturer's instructions.
(§1) Preparation of Cell Cultures. Hippocampal cell cultures were prepared as previously described (Vitolo et al., 2002). In cell culture experiments fetuses at embryonic day 18 from timed pregnant Sprague-Dawley rats (Taconic Farms) were used. Fetuses were sacrificed and the hippocampi removed. Neurons were then dissociated, plated on 6 well-plates coated with poly-L-lysine and maintained in a defined serum-free medium containing minimum essential medium supplemented with N-2, glucose, albumin, pyruvic acid, antibiotics and antimycotics. […] 5 DIV cells were used for the experiments.

The test system of test [7] is phospho-CREB at Ser-133. Nature of the test: Phospho-CREB (Ser-133) Western blot in hippocampal cultures. Type of test: cell-based, rat. Here is the method:
Western Blotting: Protein levels were assessed using standard procedures. Protein extraction was performed using buffer with and without detergent. For the extraction of protein using detergent, hippocampal tissues and cultured hippocampal neurons (5 DIV) were homogenized in RIPA buffer (50 mM Tris-HCl pH 7.4, 1% Triton X-100, 1% sodium deoxycholate, 0.1% SDS, 150 mM sodium chloride, 10 mM sodium fluoride, 30 mM sodium pyrophosphate, 50 mM sodium orthovanadate) containing 1× complete protease inhibitor (Roche) and 1 mM phenylmethylsulfonyl fluoride (PMSF). For extraction of proteins without detergent, hippocampal extracts were homogenized with disposable dounce homogenizers in buffer A, containing 10 mM HEPES pH 7.3, 300 mM sucrose, protease 1× complete protease inhibitor (Roche) and PMSF. After centrifugation at 10,000×g supernatant proteins were resolved on a 8% or 4-20% gradient Tris-Glycine gel, transferred onto PVDF or nitrocellulose membrane and blocked in 5% skim milk in PBS-Tween 0.1% (PBS-T). Membranes were probed with primary antibodies, and after washing with PBS-T incubated with an appropriate HRP-conjugated secondary antibody. The following antibodies were used: mouse monoclonal anti-ubiquitin (Chemicon), rabbit polyclonal anti-pCREB (Upstate Biotech.), rabbit polyclonal anti-PKA-RIIα (Santa Cruz Biotech. Inc), mouse monoclonal anti-Uch-L1 (Novocastra), monoclonal mouse anti-HA (Santa Cruz Biotech. Inc), and anti-PKA IIα. Detection was performed using HRP-conjugated secondary antibodies (Pierce, Rockford, Ill.). To control loading and transfer, protein immunoreactivities were normalized against total extracellular signal-regulated protein kinases (ERK1/2) levels with a rabbit analyzed using a rabbit polyclonal anti-ERK1/2 antibody (Cell Signaling Technology, Inc). NIH IMAGE was used to analyze the scanned blots and quantify the intensity of the protein signals.
as §1
(In general: Immunoblotting shows a protein as a band on a membrane.)

Test [8] has as its system mice (WT and APP/PS1). Nature of the test: Contextual and cued fear conditioning. It counts as in vivo, mouse. The conditions noted are these: 0.02-0.04 g/kg i.p.; 1, 7, 14 and 21 days after training. Here is the method:
Behavioral Studies: Fear conditioning was performed in a conditioning chamber as previously described (Bourtchuladze et al., 1994; Gong et al., 2004). For contextual and cued fear conditioning mice were placed in the conditioning chamber for 2 min before the onset of a discrete tone (CS) (a 30 sec sound at 2800 Hz and 85 dB). In the last 2 sec of the CS, mice were given a foot shock (US) of 0.50 mA for 2 sec through the bars of the floor. After the CS/US pairing, the mice were left in the conditioning chamber for another 30 sec and then placed back in their home cages. Freezing behavior, defined as the absence of all movement except for that necessitated by breathing, was scored using Freezeview software. To evaluate contextual fear learning, freezing was measured for 5 min in the chamber in which the mice were trained 24 hrs after training. To evaluate cued fear conditioning, following contextual testing, the mice were placed in a novel context (triangular cage with smooth flat floor and with vanilla odorant) for 2 min (pre-CS test), after which they were exposed to the CS for 3 min (CS test), and freezing was measured. To evaluate the contextual fear over time, mice were placed for 5 min in the chamber in which the mice were trained 7- 14- 21-days after training. Sensory perception of the shock was determined through threshold assessment. Each animal was placed individually into the conditioning chamber. […] Animal behavior was evaluated for the first visible response to the shock (flinch), the first extreme motor response (run/jump), and the first vocalized distress (scream). Threshold to flinching, jumping, and screaming was quantified for each animal by averaging of the shock intensity at which each animal manifested a behavioral response of that type to the foot shock. Visual, motor, and motivation skills were also tested with visible platform training by measuring the time and the speed to reach a visible platform placed within a pool filled with water (Gong et al., 2004). Both time to reach the platform and swimming speed were recorded and analyzed with a video tracking system (HVS-2020, HVS Image, UK). No difference was observed among different groups of mice in the experiments in which fear conditioning was tested both in the presence of LDN and TAT fusion proteins. To decide the time of administration of LDN, experiments were performed in which the inhibitor was injected intra-peritoneally at different intervals (4 hrs before, 1 hr before, 1 hr after and 4 hrs after) from the electric shock. During the training phase, no difference was found in the freezing of LDN- or vehicle-injected mice.

Test [9] deals with ubiquitin-AMC. The experiment in a line: Hydrolysis of ubiquitin-AMC by TAT fusion proteins. Type of test: biochemical. The conditions noted are these: 20 nM TAT fusion proteins. Here is the method:
Measurement of Hydrolase Activity: The hydrolase assay was performed as previously described (Nishikawa et al., 2003) with slight modifications. Briefly, hippocampal tissue was treated with tissue protein extraction reagent (T-PER; Pierce) containing freshly added EDTA-free protease inhibitors. Homogenate was centrifuged at 10,000 rpm for 5 min. Protein concentration was measured in the supernatant using the BCA protein assay reagent. In some experiments hydrolysis was initiated by adding 10 μl of 20 nM Uch-L1 or Uch-L3 (Boston Biochem). The hydrolase assay was performed using fluorogenic ubiquitin-7-amino-4-methylcoumarin (ubiquitin-AMC) (Boston Biochem) as a substrate. The substrate was diluted in assay buffer (50 mM Tris-HCL, 0.5 mM EDTA, 5 mM dithiothreitol and 0.1 mg/ml ovalbumin, pH 7.6). […] The reaction was monitored using a fluorescence spectrophotometer (CytoFluor Series 4000, ABI Inc) at 25° C. The free AMC fluorophore was excited at 380 nm and measured at 460 nm. Hydrolase activity was expressed as relative fluorescence intensity/min (Dang et al., 1998). In some experiments, hydrolysis was also measured on the soluble and insoluble fractions (FIG. 28D). In a group of experiments hydrolysis was measured by mixing ubiquitin-AMC with 20 nM TAT fusion proteins (FIG. 27C). […]

[10] abbreviates: prolonged exposure lactacystin 10 μM.

“Also recorded” adds a separate entry of the source.

For the molecule `CC(=O)N[C@@H](CSC(=O)[C@]1([C@@H](O)C(C)C)NC(=O)[C@H](C)[C@@H]1O)C(=O)O` [lactacystin, reference compound], the “BST” value in test [1] (lactacystin 10 μM, 2-4 hrs) is on record as “markedly reduced; also recorded: strongly reduced”; in [1] (lactacystin 10 μM, 15 min) it was “did not change; also recorded: does not affect; also recorded: did not affect BST”. Further, the “BST (slope of the input-output curve at 35 V)” value in [1] (lactacystin 10 μM, 2 to 4 hour exposure) is “approximately 50 % that of vehicle treated slices”. Moreover, the “BST at 35V stimulation” value in test [1] (setting [10]) is listed as 0.93±0.06 mV/ms. Moreover, in test [2] (lactacystin 10 μM, 2-4 hrs), the “PPF” value is reported as “markedly reduced”. For the same molecule, the “PPF at 50 ms interval” value in test [2] (setting [10]) is listed as 150.96±10.18%. Also, in [2] (setting [10]), the “PPF at 300 ms interval” value is given as 119.11±5.43%. Moreover, in test [3], the “GFP^u levels” value is “much larger increase in GFP”. Further, the “LTP” value was “markedly reduced; also recorded: blocked” in test [4] (2-4 hrs), “approximately 50 % that of vehicle treated slices” in [4] (2 to 4 hour exposure) and “did not change; also recorded: does not affect; also recorded: did not affect CA1-LTP” in test [4] (15 min). Also, the “baseline transmission in slices without tetanic stimulation” value in test [4] is listed as “did not affect baseline transmission”. Moreover, the “LTP at 60 min” value in test [4] (setting [10]) was 116.17±14.69%. Also, the “LTP at 120 min” value in test [4] (setting [10]) is recorded as 119.25±12.82 % of baseline. Moreover, the PKA activity in [5] is recorded as 74.9±3.21%. For the same molecule, the “beneficial effect of TAT-HA-Uch-L1 on PKA activity” value in [6] was “blocked the beneficial effect”.

B1: TAT-HA-Uch-L1(C90S): mutant TAT-HA-Uch-L1 construct, C90S (hydrolase site), made by site-directed mutagenesis (protein, UniProt P09936 1-220, looked up, variant C90S)
Ubiquitin carboxyl-terminal …: MQLKPMEINPEMLNKVLSRLGVAGQWRFVDVLGLEEESLGSVPAPACALLLLFPLTAQHENFRKKQIEELKGQEVSPKVYFMKQTIGNSSGTIGLIHAVANNQDKLGFEDGSVLKQFLSETEKMSPEDRAKCFEKNEAIQAAHDAVAQEGQCRVDDKVNFHFILFNNVDGHLYELDGRMPFPVNHGASSEDTLLKDAAKVCREFTEREQGEVRFSAVALC
modifications: fused to HIV TAT transduction peptide and HA tag
notes: mutant TAT-HA-Uch-L1 construct, C90S (hydrolase site), made by site-directed mutagenesis
Consider B1, for which the “glutamate-induced increase in CREB phosphorylation” value in test [7] (cultures not treated with Aβ) was “blocked the glutamate-induced increase in CREB phosphorylation”. Besides, in [7] (fusion protein 100 nM, 3 μM Aβ 24 hrs, 50 μM glutamate 15 min), the “effect of Aβ on glutamate-induced CREB phosphorylation (words)” value was “did not allow the enhancement of phospho-CREB”. In addition, the “contextual learning in WT mice” value in test [8] was “impaired both contextual learning and its decay; also recorded: worsened contextual conditioning performance”. The entries for the “Uch (hydrolase) activity of TAT constructs (words)” value in test [9] and in test [9] (listed as TAT-HA-Uch-L1 (C90S)) were “little or no activity” and “inactive”, respectively. The “GFP^u levels” value in test [3] is “increase in GFP^u”. Further, the entries for the “Aβ-induced impairment of CA1-LTP (words)” value in test [4] and in [4] (listed as TAT-HA-Uch-L1(C90S) peptide) were “failed to protect against LTP suppression; also recorded: failed to reverse” and “did not protect against LTP suppression”, respectively. The “LTP in slices not treated with Aβ (words)” value was “severely impaired potentiation” in test [4], “reduces LTP” in [4] (listed as Mutant (C90S) TAT-Uch-L1 fusion protein) and “dramatically reduced LTP” in [4] (listed as mutant (C90S) TAT-Uch-L1). Besides, the amounts of potentiation in test [4] (fusion protein alone, no Aβ) was found to be 152.38±10.90%. In addition, the “decrease in potentiation compared to vehicle or TAT-HA-iUch-L1” value in test [4] (fusion protein alone, no Aβ) was about 60%. The “baseline transmission in slices without tetanic stimulation” value in test [4] was “Neither TAT-HA-Uch-L1(C90S) nor TAT-HA-Uch-L1(S18Y) affected baseline; also recorded: did not affect basal transmission”.
